Measurements taken from patent publication US20220144823A1, “PYRAZOLOPYRIDINE DERIVATIVES AS INHIBITORS OF PASK” (Galapagos NV, priority 2019, published 2022).

Columns and labels:
human PASK [1] = molecular target: T1, human PASK (Homo sapiens, UniProt Q96RG2); experiment: 33P radioactive kinase assay; type: biochemical; settings: 33P radioactive PASK kinase assay, 10 μM ATP, ZIPtide 1 μM
T1 construct: purchased ThermoFisher Scientific PR7013A
Summary of the method: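 Human PASK phosphorylation of ZIPtide peptide was measured by incorporation from [^33P]-ATP plus unlabelled ATP, with a 10-point, 1/5 dilution series from 0.2 or 2 mM DMSO stocks and 1% DMSO final. Reactions were stopped with phosphoric acid, filter-harvested, washed and scintillation-counted. Percentage inhibition gave dose–response curves and averaged IC50s.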

human PASK [2] = molecular target: T1, human PASK; experiment: ADP-Glo kinase assay; type: biochemical; settings: ADPGlo PASK kinase assay, 25 μM ATP, ZIPtide 25 μM
Summary of the method: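 Human recombinant PASK phosphorylating ZIPtide peptide with ATP, 120 min at RT; compounds in 10-point 1/5 dilution series, 1% DMSO final. ADP formed measured by ADP-Glo luminescence after ATP depletion; percent inhibition fitted to dose-response curves for averaged IC50.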

T1 sequence (Q96RG2 whole entry): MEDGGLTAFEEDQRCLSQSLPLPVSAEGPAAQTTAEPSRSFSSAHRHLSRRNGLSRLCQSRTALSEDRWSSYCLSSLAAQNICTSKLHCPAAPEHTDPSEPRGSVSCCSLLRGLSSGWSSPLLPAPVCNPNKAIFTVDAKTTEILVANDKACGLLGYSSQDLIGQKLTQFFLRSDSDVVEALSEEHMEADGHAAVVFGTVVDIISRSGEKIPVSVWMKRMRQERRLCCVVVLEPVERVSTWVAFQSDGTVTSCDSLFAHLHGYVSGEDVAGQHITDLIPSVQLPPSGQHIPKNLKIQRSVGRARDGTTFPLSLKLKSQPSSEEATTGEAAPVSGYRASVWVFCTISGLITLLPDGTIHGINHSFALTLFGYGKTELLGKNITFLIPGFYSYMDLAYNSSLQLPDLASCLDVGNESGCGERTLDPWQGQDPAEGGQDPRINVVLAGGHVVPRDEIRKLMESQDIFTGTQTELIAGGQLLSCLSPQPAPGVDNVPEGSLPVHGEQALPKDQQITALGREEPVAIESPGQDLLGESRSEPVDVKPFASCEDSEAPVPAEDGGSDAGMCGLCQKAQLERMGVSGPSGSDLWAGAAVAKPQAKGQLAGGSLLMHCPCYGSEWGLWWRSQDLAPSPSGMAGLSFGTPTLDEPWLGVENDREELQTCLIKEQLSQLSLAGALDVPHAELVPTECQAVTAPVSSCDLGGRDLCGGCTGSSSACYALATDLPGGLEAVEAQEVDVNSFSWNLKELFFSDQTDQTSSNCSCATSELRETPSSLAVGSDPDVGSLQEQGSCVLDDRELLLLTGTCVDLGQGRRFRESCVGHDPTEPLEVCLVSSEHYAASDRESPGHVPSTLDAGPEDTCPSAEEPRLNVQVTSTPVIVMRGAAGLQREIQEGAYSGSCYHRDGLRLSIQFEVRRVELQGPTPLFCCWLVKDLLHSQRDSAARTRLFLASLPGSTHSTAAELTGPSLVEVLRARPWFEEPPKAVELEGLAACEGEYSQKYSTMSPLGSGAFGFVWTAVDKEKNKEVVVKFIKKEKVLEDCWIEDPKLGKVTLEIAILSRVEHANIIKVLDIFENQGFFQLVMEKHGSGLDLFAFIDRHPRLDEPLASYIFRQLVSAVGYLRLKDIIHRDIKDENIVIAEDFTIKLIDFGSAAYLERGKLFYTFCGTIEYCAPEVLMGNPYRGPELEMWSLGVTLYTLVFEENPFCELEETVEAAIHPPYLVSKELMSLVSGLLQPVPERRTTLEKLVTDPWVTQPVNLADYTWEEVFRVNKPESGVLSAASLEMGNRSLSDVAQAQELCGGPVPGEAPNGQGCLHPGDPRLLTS

IC50 (human PASK [1]): 0.01 to 10 nM
IC50 (human PASK [2]): 0.01 to 10 nM
Compound: Cc1nn(C(C)C)c(C)c1-c1cnn2ccc(-c3cc(C(=O)O)co3)cc12 [Cpd 18, 5-[3-(1-isopropyl-3,5-dimethyl-pyrazol-4-yl)pyrazolo[1,5-a]pyridin-5-yl]furan-3-carboxylic acid]
